Measurements: US10933067B2, “Nucleoside derivative having physiological activity such as antiviral activity” (NATIONAL CENTER FOR GLOBAL HEALTH AND MEDICINE, priority 2016, dated 2021)
Where two headings read alike, the source gives them in different places.

Legend:
Format in all cases: cell-based
HBV = experiment: Evaluation of anti-HBV activity (HepG2 2.2.15.7 cells, HBV DNA qPCR); details: Hepatitis B virus
Procedure: HepG2 2.2.15.7 cells were used as test cells. The HepG2 2.2.15.7 cells were prepared by using, as parent cell lines, HepG2 2.2.15 cells prepared so as to continuously produce HBV by introducing the HBV genes into human hepatoma cell lines (HepG2 cells). Meanwhile, the HepG2 2.2.15.7 cells were maintained by continuous culturing in DMEM containing 10% fetal calf serum, G418 (500 μg/ml), and antibiotics (penicillin and kanamycin).
The HepG2 2.2.15.7 cells are HBV continuously producing cells that carry not only genomically integrated DNAs, but also HBV genes produced as episomes. Therefore, the HepG2 2.2.15.7 cells were co-cultured with each nucleoside derivative, the DNA copy number of viruses released into the culture supernatant and the DNA copy number of the viruses present in the HepG2 2.2.15.7 cells were quantified, and a degree of decrease thereof was used as an index of the evaluation of the anti-HBV activity.
More specifically, the epG2 2.2.15.7 cells with a cell viability of 90% or more were seeded in a collagen-coated 96-well cell culture dish at a concentration of 2×10^4 cells/ml, and each nucleoside derivative was added at various concentrations at the same day as the cell seeding. After culturing for 3 days under the standard culture conditions of 37° C. and 5% CO2, the medium was exchanged to a fresh medium containing each nucleoside derivative, and HBV DNA was collected from the culture supernatant on the third day after the exchange for a 1W assay (an assay on day 7 from the start of culture). In addition, a fresh medium containing each nucleoside derivative was further added to the cell plate after the collection of the supernatant, and the culture was further continued for 7 days. For a 2W assay (an assay on day 14 from the start of culture), intracellular HBV DNAs were collected from the HepG2 2.2.15.7 cells. Using these DNAs as a template, the quantitative PCR was performed to find the virus copy number from the calibration curve, and the 50% effect (EC50) for each nucleoside derivative was calculated.
The DNA extractions from the supernatant of the HepG2 2.2.15.7 cells and from inside the cells were carried out using QIAamp Mini Elute virus Spin Kit (manufactured by QIAGEN), and 5 μL of the extracted DNAs was used for the qPCR. The PCR reaction was conducted by using a specific TaqMan probe primer, manufactured by Primer Design Ltd., which detects the HBV core protein region. The PCR reaction was carried out at 95° C. for 15 minutes, followed by 50 cycles of 95° C. for 10 seconds and 60° C. for 60 seconds. The obtained CT was converted to the HBV copy number using a calibration curve obtained from reactions in which HBV DNA fragments at a known concentration were diluted every 10-fold (from to 2×10^8 copies).

[1] = Cytotoxicity test 1, HepG2 cells (MTT assay); details: human
Procedure: (§1) The above nucleoside derivatives were also subjected to cytotoxicity tests on the MT-2 cells and HepG2 cells. Together with the medium to which each nucleoside derivative at each concentration after serial dilution was added, the MT-2 cells were seeded at a concentration of 1×10^4, whereas the HepG2 cells were seeded at a concentration of 1×10^4. Thus, these cells were cultured in the presence of each nucleoside derivative at various concentrations for 7 days under the standard culture conditions of 37° C. and 5% CO2, and thereafter the number of live cells in each well was quantified by an MTT assay. Based on the numbers of live cells obtained, the CC50 was calculated for each nucleoside derivative.

HIV-1 LAI = experiment: Evaluation of anti-HIV activity (MT-2 cells exposed to HIV-1 LAI, MTT assay); details: Human immunodeficiency virus 1, MT2, 168 h, 7 days, read-out: Antiviral activity, EC50 HIV-1
Description: HIV-1 LAI was used as a wild-type HIV-1 molecular clone. In addition, MT-2 cells were used as cells to be infected. These cells were continuously cultured and maintained in a RPMI-1640 medium containing 10% FCS and supplemented with the aforementioned antibiotics. The MT-2 cells were exposed to HIV-1 LAI virus in an amount of 50 times the 50% infectious concentration (TCID 50), and the resultant MT-2 cells and a medium supplemented with each of the nucleoside derivatives at each of concentrations after serial dilution were together seeded into each cell of a 96-well cell culture dish at a concentration of 1×10^4 cells/mL. Then, after culturing for 7 days in the presence of each nucleoside derivative under standard culture conditions of 37° C. and 5% CO2, the number of live cells in each well was quantified by MTT assay. Based on the numbers of live cells obtained, the EC50 value was calculated and the anti-HIV activity of each nucleoside derivative was evaluated.

[2] = Cytotoxicity test 1, MT-2 cells (MTT assay); details: human
Procedure: as §1

[3] = tested on: ETV resistant strain (genotype: HBV/Ce); experiment: Evaluation of anti-HBV/Ce activity (Huh-7 cells transfected with ETV resistant strain, Southern blot); details: Hepatitis B virus, Huh-7, 72 h, read-out: Antiviral activity, EC50 HBV ETVr
Procedure: Regarding the above nucleoside derivatives, each nucleoside derivative was added to Huh-7 cells transfected with an ETV resistant strain (genotype: HBV/Ce, referred to as “HBV ETVr” in Table 1). After 72 hours from the addition, DNAs were extracted from the cells according to a conventional method, and analyzed by Southern blot using a probe for the HBV gene. Thus, the DNA copy number of the viruses was quantified, and the EC50 value was calculated in the same way as described above.

[4] = Cytotoxicity test 2, PXB cells (MTT assay); details: PXB cells (fresh human hepatocytes)
Procedure: PXB cells were used as test cells. PXB cells were fresh human hepatocytes isolated from chimeric mice with humanized liver and were maintained in a dHCGM medium for PXB cells. Both the cells and the medium are made by PhoenixBio Co., Ltd.
The PXB cells were seeded at 3×10^5 cells/ml on a collagen-coated 96-well plate and cultured together with each compound at each concentration after stepwise dilution for 7 days under the standard culture conditions of 37° C. and 5% CO2, and thereafter the number of live cells in each well was quantified by an MTT assay. Based on the obtained values, the degree of cytotoxicity was determined, and the CC50 value was calculated as the cytotoxicity of each compound.

[5] = 336 h, day 14, intracellular HBV DNA, read-out: Antiviral activity, EC50 HBV 2W assay

| SMILES | EC50 (HBV; [5]) | CC50 at 7 days [1] | EC50 (HIV-1 LAI) | CC50 at 7 days [2] | EC50 (HBV; 168 h, day 7, HBV DNA in culture supernatant, read-out: Antiviral activity, EC50 HBV 1W assay) | EC50 [3] | CC50 at 7 days [4] |
| --- | --- | --- | --- | --- | --- | --- | --- |
| C=C1[C@@H](n2cnc3c(=O)[nH]c(N)nc32)C[C@H](O)[C@@]1(C#N)CO | 30 nM | 89000 nM | 160 nM | > 100000 nM |  |  |  |
| C=C1[C@@H](n2cnc3c(=O)[nH]c(N)nc32)C[C@H](O)[C@@]1(O)CO | 10 nM | 67000 nM | > 1000 nM | > 100000 nM |  |  |  |
| C=C1[C@@H](n2cnc3c(=O)[nH]c(N)nc32)C[C@H](O)[C@]1(CO)CF | 90 nM | > 100000 nM | > 1000 nM | > 100000 nM |  |  |  |
| C=C[C@]1(CO)C(=C)[C@@H](n2cnc3c(=O)[nH]c(N)nc32)C[C@@H]1O | > 1000 nM | > 100000 nM | > 1000 nM | > 100000 nM |  |  |  |
| C#C[C@]1(CO)C(=C)[C@@H](n2cnc3c(=O)[nH]c(N)nc32)C[C@@H]1O | > 1000 nM | > 100000 nM | 27 nM | > 100000 nM |  |  |  |
| N#C[C@]1(CO)/C(=C\F)[C@@H](n2cnc3c(=O)[nH]c(N)nc32)C[C@@H]1O [(1S,3S,5S,E)-3-(2-Amino-6-oxo-1,6-dihydro-9H-purin-9-yl)-2-(fluoromethylene)-5-hydroxy-1-(hydroxymethyl)cyclopentane-1-carbonitrile] | 7 nM | 50000 nM | 20 nM | > 100000 nM | 3 nM | 65.3 nM | > 100000 nM |
